Values quoted from earlier work, collected in US20260335285A1, “A TOPICAL COMPOSITION COMPRISING CHLORINE E6 AND ZINC L-PYROGLUTAMATE” (ZXA GROUP LTD., priority 2022, published 2026).

Conditions: known in the art; topical

delivery into the skin: inefficient delivery into the skin
SMILES: C=Cc1c(C)c2cc3nc(c(CC(=O)O)c4[nH]c(cc5nc(cc1[nH]2)C(C)=C5CC)c(C)c4C(=O)O)[C@@H](CCC(=O)O)[C@@H]3C [chlorine e6, (17S,18S)-18-(2-carboxyethyl)-20-(carboxymethyl)-12-ethenyl-7-ethyl-3,8,13,17-tetramethyl-17,18,22,23-tetrahydroporphyrin-2-carboxylic acid]
